# Patent publication US20190110476A1, “NOVEL ISOTHIAZOLAMIDES, PROCESSES FOR THEIR PREPARATION AND THEIR USE AS FUNGICIDES” (priority 2014, published 2019)
# Marks after values point to notes of the source that are not given here.
# Experiment: Measurement of LogP values by HPLC on reversed phase columns (EEC directive 79/831 Annex V.A8)
# Type: physicochemical
# Summary of the method: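 Following EEC directive 79/831 Annex V.A8, lipophilicity was derived from retention on reversed-phase HPLC columns. Separate values are given per diastereoisomer, and UV lambda-max (200–400 nm) was read at the peak signals.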
LogP [a],LogP,LogP [c],LogP [b],SMILES
–,3.55[a],–,–,COc1ccc(CNc2nsc(C(=O)NC(C)Cc3ccco3)c2Cl)cc1 (centres unmarked) [I-1239]
–,4.03[a],–,–,CCC(NC(=O)c1snc(NCc2ccc(OC)cc2)c1Cl)c1ccccc1 (centres unmarked) [I-1265]
–,1.86[a],–,–,COc1ccc(CNc2nsc(C(=O)NS(C)(=O)=O)c2Cl)cc1 [I-883]
–,–,1.90^[c],–,CCCS(CC)=Nc1nsc(C(=O)NCC2CCCCC2)c1Cl (centres unmarked) [II-086]
–,4.61[a],–,–,COc1ccc(CNc2nsc(C(=O)NC(C)c3ccc(Cl)cc3Cl)c2Cl)cc1 (centres unmarked) [I-1256]
–,2.54[a],–,–,Nc1nsc(C(=O)NC2CC23CCCCC3)c1Cl (centres unmarked) [I-1549]
–,3.23[a],–,–,COc1ccc(CNc2nsc(C(=O)NCc3cn(C4CCCC4)nc3C)c2Cl)cc1 [I-1339]
–,4.91[a],–,–,COc1ccc(CNc2nsc(C(=O)N(C3CC3)C(C)c3cccc(C(F)(F)F)c3)c2Cl)cc1 (centres unmarked) [I-948]
–,3.59[a],–,–,COc1ccc(CNc2nsc(C(=O)NCc3cc(OC)ccc3OC)c2Cl)cc1 [I-1230]
–,5.36[a],–,–,O=C(c1cc(N(Cc2ccccc2)Cc2ccccc2)ns1)N(Cc1ccccc1)C1CC1 [I-910]
–,1.35[a],–,–,COc1ccc(CNc2nsc(C(=O)NCc3cncn3C)c2Cl)cc1 [I-1213]
–,5.81[a],–,–,CCC(c1cc(Cl)cc(Cl)c1)N(C(=O)c1snc(NCc2ccc(OC)cc2)c1Cl)C1CC1 (centres unmarked) [I-936]
–,5.22[a],–,–,COc1ccc(CNc2nsc(C(=O)N(C3CC3)C(C)c3ccc(Cl)cc3Cl)c2Cl)cc1 (centres unmarked) [I-931]
–,4.23[a],–,–,COc1ccc(CNc2nsc(C(=O)NC(C)c3ccc(Br)cc3)c2Cl)cc1 (centres unmarked) [I-1273]
–,1.52[a],–,–,COc1ccc(CNc2nsc(C(=O)NCc3ccncc3C)c2Cl)cc1 [I-1314]
4.37^[a],–,–,–,COc1ccc(CNc2nsc(C(=O)N3CCCc4cc(Cl)ccc43)c2Cl)cc1 [II-066]
–,4.35[a],–,–,COc1ccc(CNc2nsc(C(=O)NC3CCC4CCCC43)c2Cl)cc1 (centres unmarked) [I-1346]
–,1.41[a],–,–,N#Cc1cccc(CNC(=O)c2snc(N)c2Cl)c1 [I-1289]
–,4.67[a],–,–,COc1ccc(CNc2nsc(C(=O)N(C3CCCCC3)C3CC3)c2Cl)cc1 [I-893]
1.83^[a],–,–,–,O=C(NCc1ccc(F)c(F)c1F)c1snc(N=S2CCCC2)c1Cl [II-048]
2.23^[a],–,–,–,CCCS(C)=Nc1nsc(C(=O)NCC2CCCCC2)c1Cl (centres unmarked) [II-089]
–,3.39[a],–,–,COc1ccc(CNc2nsc(C(=O)NCc3ccc(C)n3C)c2Cl)cc1 [I-1320]
–,3.90[a],–,–,COc1ccc(CNc2nsc(C(=O)NC3Cc4ccccc4C3)c2Cl)cc1 [I-1248]
5.48^[a],–,–,–,COc1ccc(CN(Cc2ccc(C)cc2)c2nscc2Cl)cc1 [Z-A-008]

LogP [a],LogP,LogP [c],LogP [b],SMILES
–,1.55[a],–,–,CC(C)CNC(=O)c1snc(N)c1Cl [I-1018]
3.68^[a],–,–,–,COc1ccc(CNc2nsc(C(=O)N3CCc4ccccc4C3)c2Cl)cc1 [II-064]
–,5.22[a],–,–,COc1ccc(CNc2nsc(C(=O)NC3CCc4cc(C(C)(C)C)ccc43)c2Cl)cc1 (centres unmarked) [I-1331]
–,3.37[a],–,–,Nc1nsc(C(=S)NCC2CCCCC2)c1Cl [I-913]
–,3.11[a],–,–,Nc1cc(C(=O)N(Cc2cc(Cl)cc(C(F)(F)F)c2)C2CC2)sn1 [I-970]
2.17^[a],–,–,–,O=C(NCc1ccc(Cl)cc1)c1snc(N=CN2CCCC2)c1Cl [II-030]
–,5.42[a],–,–,COc1ccc(CNc2nsc(C(=O)Nc3cccc4c3C(C)CC4(C)C)c2Cl)cc1 (centres unmarked) [I-880]
3.83,–,–,3.76,COc1ccc(CNc2nsc(C(=O)N3CCc4ccccc43)c2Cl)cc1 [II-069]
–,4.40[a],–,–,COc1ccc(CNc2nsc(C(=O)NC3CCCCc4ccccc43)c2Cl)cc1 (centres unmarked) [I-1334]
–,2.69[a],–,–,Nc1nsc(C(=O)NCC2CCCCC2C(F)(F)F)c1Cl (centres unmarked) [I-1567]
1.94^[a],–,–,–,CCS(C)=Nc1nsc(C(=O)NCC2CCCCC2)c1Cl (centres unmarked) [II-091]
–,2.73[a],–,–,COc1ccc(CNc2nsc(C(=O)NC(c3cncnc3)C(C)C)c2Cl)cc1 (centres unmarked) [I-1251]
–,3.74[a],–,–,COc1ccc(CNc2nsc(C(=O)NCCc3ccccc3F)c2Cl)cc1 [I-963]
3.72^[a],–,–,–,COc1ccc(CNc2nsc(C(=O)N3CCCc4cc(OC)ccc43)c2Cl)cc1 [II-063]
4.77^[a],–,–,–,O=C(NCC1CCCCC1)c1snc(N=S(c2ccccc2)c2ccccc2)c1Cl [II-092]
–,3.70[a],–,–,CC(c1cc(Cl)cc(Cl)c1)N(C(=O)c1snc(N)c1Cl)C1CC1 (centres unmarked) [I-952]
0.32^[a],–,–,–,CS(C)=Nc1nsc(C(=O)NCC2CCCC2)c1F [II-061]
–,1.82[a],–,–,COc1ccc(CNc2nsc(C(=O)NC(Cn3ccnc3)C(C)(C)C)c2Cl)cc1 (centres unmarked) [I-1324]
–,5.62[a],–,–,CCC(c1ccc(Cl)cc1Cl)N(C(=O)c1snc(NCc2ccc(OC)cc2)c1Cl)C1CC1 (centres unmarked) [I-932]
–,5.54[a],–,–,O=C(c1cc(N(Cc2ccccc2)Cc2ccccc2)ns1)N(Cc1c(F)cccc1Cl)C1CC1 [I-911]
–,2.03[a],–,–,CCOC(=O)c1cccc(CNC(=O)c2snc(N)c2Cl)c1 [I-1307]
–,2.11[a],–,–,Nc1nsc(C(=O)NCCc2ccccc2F)c1Cl [I-972]
–,3.12[a],–,–,Nc1nsc(C(=S)NCc2ccc(Cl)cc2)c1Cl [I-1026]
–,5.10[b],–,–,COc1ccc(CNc2nsc(C(=O)NC(Cc3ccccc3)C3CCCCC3)c2Cl)cc1 (centres unmarked) [I-1079]

# Continued, compound first:
SMILES,LogP [a],LogP,LogP [c],LogP [b]
O=C(NCC1CCCCC1)c1snc(N=S(Cc2ccccc2)Cc2ccccc2)c1Cl [II-084],4.38^[a],–,–,–
C[C@H](NC(=O)c1snc(N)c1C(F)F)C1CCCCC1 [I-270],–,2.96[a],–,–
COc1ccc(CNc2nsc(C(=O)NCC3(O)CCCCC3)c2Cl)cc1 [I-105],–,3.09[a],–,–
Nc1nsc(C(=O)NCc2c(F)cccc2Cl)c1Cl [I-132],–,2.06[a],–,–
COc1ccc(CNC(=O)c2snc(N)c2Cl)cc1F [I-240],–,1.91[a],–,–
C[C@H](NC(=O)c1snc(Nc2ccc(F)cc2)c1Cl)C1CCCCC1 [I-063],–,4.81[a],–,–
CC1(C)C2CCC(CNC(=O)c3snc(Cl)c3Cl)C1C2 (centres unmarked) [E-II-023],5.13,–,–,5.02
O=C(NCC1CCCCO1)c1snc(N=C(c2ccccc2)c2ccccc2)c1Cl (centres unmarked) [II-008],4.55^[a],–,–,–
Nc1nsc(C(=O)NC2(C3CCCCC3)CC2)c1Cl [I-143],–,2.82[a],–,–
Cc1c(N)nsc1C(=O)NCc1c(F)cc(F)cc1F [I-583],–,1.69[a],–,–
CS(=O)(=O)N(c1nsc(C(=O)NCc2ccccc2F)c1Cl)S(C)(=O)=O [I-185],–,2.80[a],–,–
CC(C)(NC(=O)c1snc(Cl)c1Cl)C1CCCCC1 [E-II-013],5.39^[a],–,–,–
C[C@H](NC(=O)c1snc(N)c1C1CC1)C1CCCCC1 [I-271],–,2.68[a],–,–
O=C(NCc1ccccc1F)c1snc(Nc2ccc(F)cc2)c1Cl [I-059],–,3.68[a],–,–
CC1(C)C2CCC1(C)C(NC(=O)c1snc(Cl)c1Cl)C2 (centres unmarked) [E-II-017],5.02,–,–,4.96
O=C(NCC1CCCCC1)c1cc(N(Cc2ccccc2)Cc2ccccc2)ns1 [I-540],–,5.22[a],–,–
Nc1nsc(C(=O)NCC2=CCCCC2)c1Cl [I-089],–,2.30[a],–,–
Cc1c(CNC(=O)c2snc(N)c2Cl)ccc(F)c1F [I-163],–,2.23[a],–,–
Nc1nsc(C(=O)NCc2cc(F)cc(F)c2)c1Cl [I-024],–,2.11[a],–,–
Nc1cc(C(=O)NCc2cccc(Cl)c2Cl)sn1 [I-308],–,2.02[a],–,–
COc1ccc(CNc2nsc(C(=O)Nc3ccc(F)cc3F)c2Cl)cc1 [I-856],–,3.83[a],–,–
Nc1cc(C(=O)NCc2ccccc2Cl)sn1 [I-282],–,1.69[a],–,–
CCOC(=O)c1snc(NC(=O)c2ccccc2)c1Cl [E-VII-020],2.45^[a],–,–,–
CCC(=O)N(C(=O)CC)c1nsc(C(=O)NCc2ccc(C#N)cc2)c1Cl [I-810],–,2.89[a],–,–
O=C(NCc1ccccc1F)c1snc(NC2CC2)c1Cl [I-057],–,2.66[a],–,–

SMILES,LogP [a],LogP,LogP [c],LogP [b]
Nc1nsc(C(=O)NC2CCCC3CCCCC32)c1Cl (centres unmarked) [I-808],–,3.33[a],–,–
O=CNc1nsc(C(=O)NCc2ccc(F)cc2F)c1Cl [I-467],–,1.89[a],–,–
O=C(NCC1CCCCC1)c1snc(NCCCO)c1Cl [I-676],–,2.46[a],–,–
Nc1cc(C(=O)NCc2cccc(Cl)c2)sn1 [I-281],–,1.78[a],–,–
CC(C)OC(=O)c1snc(N)c1Cl [E-VII-005],2.17,–,–,2.16
Cc1ccc(CNC(=O)c2snc(N)c2C)c(F)c1 [I-145],–,1.81[a],–,–
Cc1ccc(CNC(=O)c2snc(N)c2Cl)o1 [I-814],–,1.66[a],–,–
CCOc1c(N)nsc1C(=O)NC1CCCCC1 [I-727],–,2.14[a],–,–
Nc1cc(C(=O)NCc2ccccc2F)sn1 [I-305],–,1.41[a],–,–
Nc1nsc(C(=O)Nc2ccccc2)c1Cl [I-852],–,1.83[a],–,–
"Nc1nsc(C(=O)NCC2CCCC2O)c1Cl (single isomer, unassigned) [I-772]",–,1.09[a],–,–
Nc1nsc(C(=O)NCc2cccc(Cl)c2)c1Cl [I-021],–,2.15[a],–,–
CC(C)(C)OC(=O)Nc1nsc(C(=O)O)c1Cl [E-VIII-001],1.35^[a],–,–,–
C#Cc1c(NC(=O)C(F)(F)F)nsc1C(=O)NCC1CCCCC1 [I-609],–,3.05[a],–,–
Nc1nsc(C(=O)NC2CCCCC2)c1Cl [I-001],–,2.10[a],–,–
COc1ccc(CNc2nsc(C(=O)NCC3CCCC(C(F)(F)F)C3)c2Cl)cc1 (centres unmarked) [I-106],–,4.33[a],–,–
O=C(NCCC1CCCCC1)c1snc(Cl)c1Cl [E-II-033],4.40^[a],–,–,–
Nc1nsc(C(=O)N(Cc2ccccc2)C2CC2)c1Cl [I-183],–,2.41[a],–,–
N#Cc1ccc(CNC(=O)c2snc(N)c2Cl)cc1 [I-783],–,1.44[a],–,–
COc1ccc(CNc2nsc(C(=O)N[C@@H](C)C3CCCCC3)c2Cl)cc1 [I-065],–,4.66[a],–,–
C=CCNc1nsc(C(=O)N[C@@H](C)C2CCCCC2)c1Cl [I-066],–,4.02[a],–,–
O=C(NCC1CCOC1)c1snc(Cl)c1Cl (centres unmarked) [E-II-007],1.84^[a],–,–,–
COc1ccc(CNc2nsc(C(=O)NCC3CCCCC3(C)C)c2Cl)cc1 (centres unmarked) [I-056],–,4.95[a],–,–
COc1c(N)nsc1C(=O)NCC1CCCCO1 (centres unmarked) [I-734],–,1.31[a],–,–
